Here are results for three molecules from patent US20090275474A1, “PESTICIDAL APPLICATIONS OF DIMETHYL CYANAMIDE” (Metbro Distributing L.P., priority 2008, published 2009).

What all share (format): in vivo
The subject of test [1] is beneficial microbivorous nematodes. The test can be described thus: Example 2 pot test, microbivorous nematodes in soil. The following applies: soil drench 20-150 mgs. A.I./kg soil. Here is the method: (§1) Dimethyl cyanamide and diisopropyl cyanamide (both obtained from Aldrich) were delivered in aqueous preparations (1.25% active ingredient) (A.I.) prepared immediately before use by diluting in demineralized water while stirring with a magnetic stirrer. […] Each compound was delivered at rates of 0, 20, 40, 60, 80, 100, and 150 mgs. A.I./kg soil—equivalent to […].
(§2) Each treatment was delivered by drenching in 100 mL aqueous volume onto the soil surface in pots (10-cm diam.; PVC) containing 1 kg soil. The soil (silt loam; pH 6.2; cec<10 meq/100 gm soil; org. matter<1.0%) was from a cotton field severely infested with the reniform nematode [Rotylenchulus reniformis]. Immediately after treatment the pots were covered by a thick (1.5 mil) clear low density polyethylene bag held tight against the outer wall of the pot by a rubber band. Eleven days after application the bags were removed and soil samples were taken from every pot (experimental unit) for nematological analysis (salad bowl incubation technique). […] Final root and soil nematode populations were determined and plant growth parameters (number and height of plants, weights of shoots and roots, root condition indices) were recorded. […]

For test [2], the system named is dorylaimida (predatory, not plant parasitic nematodes). The test can be described thus: Example 2 pot test, soil populations of dorylaimida. The following applies: soil drench 20-150 mgs. A.I./kg soil. Here is the method: as §1, §2
Test [3] relates to beneficial microbivorous nematodes. The test can be described thus: Example 1 pot test, microbivorous nematodes in soil. Conditions: soil drench 25-200 mg A.I./kg soil. The procedure: (§3) Hydrogen cyanamide (Dormex® formulation, Dormex Corp.) and dimethyl cyanamide (Aldrich) were delivered in aqueous preparations (1.25% active ingredient) (A.I.) prepared immediately before use by diluting in demineralized water while stirring with a magnetic stirrer. Each compound was delivered at rates of 0, 25, 50, 75, 100, 150, and 200 mg A.I./kg soil—equivalent to 0, 50, 100, 150, 200, 300, and 400 lbs A.I./acre.
as §2, with “drenching the compound” for “drenching”, “nematode (Rotylenchulus reniformis).” for “nematode [Rotylenchulus reniformis].”, “covered with” for “covered by”, “(number &” for “(number and”

Test [4] deals with reniform nematode [Rotylenchulus reniformis]. The test can be described thus: Example 2 pot test, soil drench, reniform nematode in soil. Conditions: soil drench 20-150 mgs. A.I./kg soil; FIGS. 7-10. Here is the method:
as §1, §2

The test system of test [5] is reniform nematode (Rotylenchulus reniformis). The test can be described thus: Example 1 pot test, soil drench, reniform nematode in soil and soybean roots. The following applies: for nematicidal activity against the reniform nematode in soil and soybean roots: soil drench 25-200 mg A.I./kg soil, soil sampled 11 days after application and after eight weeks of soybean growth, FIGS. 1-6. The procedure:
as §3
Each treatment was delivered by drenching the compound in 100 mL aqueous volume onto the soil surface in pots (10-cm diam.; PVC) containing 1 kg soil. The soil (silt loam; pH 6.2; cec<10 meq/100 gm soil; org. matter<1.0%) was from a cotton field severely infested with the reniform nematode (Rotylenchulus reniformis). Immediately after treatment the pots were covered with a thick (1.5 mil) clear low density polyethylene bag held tight against the outer wall of the pot by a rubber band. Eleven days after application the bags were removed and soil samples were taken from every pot (experimental unit) for nematological analysis (salad bowl incubation technique). Each pot was then planted with five seeds of nematode-susceptible “Hutcheson” soybean (glycine max) and the resulting plants were grown for eight weeks, at which time the plants were removed and soil samples were taken from each pot. Final root and soil nematode populations were determined and plant growth parameters (number & height of plants, weights of shoots and roots, root condition indices) were recorded.
Major pests: The reniform nematode [Rotylenchulus reniformis].
(§4) Experimental design: Randomized complete block with seven replications/treatment.
(§5) Statistical analyses: ANOVA and Fischer's least significant difference [FLSD] at p 0.05. Regression analyses.

Test [6] deals with "Rowden" cotton (Gossipyum hirsutum). The test can be described thus: Example 2 pot test, growth and root health of cotton plants in nematode-infested soil. The procedure:
as §1
Each treatment was delivered by drenching in 100 mL aqueous volume onto the soil surface in pots (10-cm diam.; PVC) containing 1 kg soil. The soil (silt loam; pH 6.2; cec<10 meq/100 gm soil; org. matter<1.0%) was from a cotton field severely infested with the reniform nematode [Rotylenchulus reniformis]. Immediately after treatment the pots were covered by a thick (1.5 mil) clear low density polyethylene bag held tight against the outer wall of the pot by a rubber band. Eleven days after application the bags were removed and soil samples were taken from every pot (experimental unit) for nematological analysis (salad bowl incubation technique). Each pot was then planted with five seeds of nematode-susceptible “Rowden” cotton (Gossipyum hirsutum) and the resulting plants were grown for eight weeks, at which time the plants were removed and soil samples were taken from each pot. Final root and soil nematode populations were determined and plant growth parameters (number and height of plants, weights of shoots and roots, root condition indices) were recorded.
as §4
Statistical analyses: ANOVA and Fischer's least significant difference [FLSD] at p
0.05. Regression analyses.

Test [7] deals with "Hutcheson" soybean (glycine max). The test can be described thus: Example 1 pot test, growth of soybean plants in nematode-infested soil. Conditions: after eight weeks of growth. The procedure: as §3
as §2, with “drenching the compound” for “drenching”, “nematode (Rotylenchulus reniformis).” for “nematode [Rotylenchulus reniformis].”, “covered with” for “covered by”, “(number &” for “(number and”

Test [8] relates to dorylaimida (predatory, not plant parasitic nematodes). The test can be described thus: Example 1 pot test, soil populations of dorylaimida. Conditions: soil drench 25-200 mg A.I./kg soil. The procedure:
as §3
as §2, with “drenching the compound” for “drenching”, “nematode (Rotylenchulus reniformis).” for “nematode [Rotylenchulus reniformis].”, “covered with” for “covered by”, “(number &” for “(number and”

Test [9] deals with Yellow nutsedge [Cyperus esculentus], crabgrass [Digitaria sanguinalis], sicklepod [Senna obtusifolia], morningglory [Ipomoea spp], and other annual weeds. The test can be described thus: Example 4 herbicidal pot test, dimethyl cyanamide alone and in combination with EPTC, weed counts. The procedure: Dimethyl cyanamide was delivered in a 5% aqueous solution. The herbicide EPTC [ethyl n-propyl thiocarbamate] was delivered in an aqueous emulsion containing 0.1192% A.I. Both formulations were prepared immediately before use by diluting or mixing [a concentrated formulation?] in demineralized water while stirring with a magnetic stirrer. The dimethyl cyanamide was obtained from Aldrich. The EPTC used was a commercial formulation [Eptam® herbicide, Gowan].
Dimethyl cyanamide was applied at rates of 0, 50, 100, 200, 300, and 400 mg A.I./kg soil—equivalent to 0, 100, 200, 400, 600, and 800 lbs A.I./acre, respectively. EPTC was delivered at 0 and 3.576 mg/kg soil, equivalent to 0 and approximately 7 lbs. A.I./acre. All possible combinations of the two compounds at their corresponding rates were included in the experiment.
Each treatment was delivered by drenching in 100 mL aqueous volume onto the soil surface in pots [10-cm diam.; PVC] containing 1 kg soil. The soil was from a cotton field [silt loam; ph 6.2; cec<10 meq/100 gm soil; org. matter<1.0%1. Immediately after treatment the pots were covered by a thick [1.5 mil] clear low density polyethylene bag held tight against the outer wall of the pot by a rubber band. Six days after application the bags were removed. Weed counts were taken from each pot [experimental unit] at 6, 12, 17, 47, and 62 days after application of the treatments. […]

In test [10] the test system is Yellow nutsedge [Cyperus esculentus], crabgrass [Digitaria sanguinalis], sicklepod [Senna obtusifolia], morningglory [Ipomoea spp.], and other annual weeds. The test can be described thus: Example 3 herbicidal pot test, soil drench, weed counts. The following applies: for herbicidal activity against all weed species tested: soil drench 100-800 mgs. A.I./kg soil, weed counts 11, 19, 26 and 32 days after application, FIGS. 11-12. The procedure: Hydrogen cyanamide and dimethyl cyanamide were delivered in aqueous 5% solutions prepared immediately before use by diluting in demineralized water while stirring with a magnetic stirrer. Both chemicals were obtained from Aldrich. Each compound was delivered at rates of 0, 100, 200, 300, 400, 600, and 800 mgs. A.I./kg soil—equivalent to 0, 200, 400, 600, 800, 1200, and 1600 lbs A.I./acre.
Each treatment was delivered by drenching in 100 mL aqueous volume onto the soil surface in pots [10-cm diam.; PVC] containing 1 kg soil. The soil was from a cotton field [silt loam; ph 6.2; cec<10 meq/100 gm soil; org. matter<1.0%]. Immediately after treatment the pots were covered by a thick [1.5 mil] clear low density polyethylene bag held tight against the outer wall of the pot by a rubber band. Eleven days after application the bags were removed. Weed counts were taken from each pot [experimental unit] at 11, 19, 26 and 32 days after application of the treatments.
Major pests: Yellow nutsedge [Cyperus esculentus], crabgrass [Digitaria sanguinalis], sicklepod [Senna obtusifolia], morningglory [Ipomoea spp.], and other annual weeds.
Experimental design: Randomized complete block with seven replications/treatments.
as §5

Molecules are shown by their SMILES. Entries after “also recorded” stand apart in the source; their conditions may differ.

For `CC(C)N(C#N)C(C)C` [diisopropyl cyanamide, reference compound], the “soil populations of beneficial microbivorous nematodes” value in test [1] is “either reduced or not affected”. In addition, in test [2], the “soil populations of dorylaimida” value is listed as “either reduced or not affected”.
Turning to `CN(C)C#N` [dimethyl cyanamide, Dimethyl cyanamide], in [1], the “soil populations of beneficial microbivorous nematodes” value is listed as “either reduced or not affected”. Also, the “effect on beneficial microbivorous nematodes” value in [3] is on record as “not significantly affected”. Besides, in [4], the “nematicidal activity against the reniform nematode in soil” value was “nematicidal, resulting in suppression or elimination of the reniform nematode in soil; also recorded: powerful nematicide”. The “effectiveness as a nematicide relative to hydrogen cyanamide” value in test [5] (considered in terms of the rates of cyanamide anion applied) is recorded as “more effective as a nematicide than hydrogen cyanamide”. Further, the “overall results on delivery at the same rate (kg/ha) as hydrogen cyanamide” value in test [5] (same weight rate, hydrogen cyanamide contains approximately 1.66 times as much cyanamide (NCN group)) was “very similar results overall”. Moreover, in test [5], the “nematicidal activity against the reniform nematode in soil and soybean roots” value is “nematicidal, resulting in suppression or elimination of the reniform nematode in soil and soybean roots; also recorded: powerful nematicide”. The “root health as indicated by root appearance indices” value in [6] (dimethyl cyanamide: two highest rates, diisopropyl cyanamide: any rate) is on record as “markedly improved”. Further, in test [6] (in vivo), the “number of cotton plants/pot, dimethyl cyanamide vs diisopropyl cyanamide” value is “higher”. Also, the “cotton plant heights and shoot and root weights” value in [6] (two highest rates, after eight weeks) is recorded as “concomitant increase”. Further, the “soybean plant height and weights of shoots and roots, compared with pots treated with hydrogen cyanamide” value in [7] was “taller and with heavier shoots and roots”. The “soil populations of dorylaimida” value in [8] is reported as “similarly reduced”; in test [2], “either reduced or not affected”. Moreover, the “herbicidal activity of dimethyl cyanamide during the initial counts in the presence of EPTC” value in test [9] was “almost “masked” by that of EPTC”. Further, the “herbicidal activity compared with hydrogen cyanamide” value in test [10] (dose-response expressed in terms of mg of CN added to the soil, one exception (sicklepod)) is recorded as “superior to hydrogen cyanamide as a herbicide”. Besides, the “herbicidal activity against all weed species tested” value in test [10] is reported as “herbicidal against all weed species tested; also recorded: considerable herbicidal activity equivalent to or better than that shown by hydrogen cyanamide”.
With `N#CN` [hydrogen cyanamide, Hydrogen cyanamide, reference compound], the “effect on beneficial microbivorous nematodes” value in test [3] is given as “not significantly affected”. Further, the “nematicidal activity against the reniform nematode in soil and soybean roots” value in test [5] is “nematicidal, resulting in suppression or elimination of the reniform nematode in soil and soybean roots”. Also, the “root populations of the reniform nematode, compared between the two compounds” value in test [5] (soybean roots after eight weeks, hydrogen cyanamide vs dimethyl cyanamide) is listed as “lower”. For the same molecule, the “soil populations of dorylaimida” value in [8] is listed as “similarly reduced”. Besides, the “herbicidal activity against all weed species tested” value in test [10] is “herbicidal against all weed species tested”.
